# Experimental data as given in ChEMBL document CHEMBL4325861, “Naphthalene, a versatile platform in medicinal chemistry: Sky-high perspective” (Eur J Med Chem, 2019).
# Tests used:
# [1] = tested on: Human immunodeficiency virus 1; test: Antiviral activity against HIV1 infected in human MT4 cells; assay type: functional, organism-based; conditions: Human immunodeficiency virus 1, MT4
# HL-60 = test: Antiproliferative activity against human HL60 cells; assay type: functional, cell-based
# [2] = tested on: Human immunodeficiency virus 1; test: Antiviral activity against HIV1; assay type: functional, organism-based
# HeLa = test: Antiproliferative activity against human HeLa cells; assay type: functional, cell-based
# P388 = test: Antiproliferative activity against mouse P388 cells; assay type: functional, cell-based
# [3] = molecular target: Prostaglandin G/H synthase 2 (Homo sapiens) (UniProt P35354); test: Inhibition of COX2 (unknown origin) at 10 uM relative to control
# [4] = molecular target: Prostaglandin G/H synthase 1 (Homo sapiens) (UniProt P23219); test: Inhibition of COX1 (unknown origin) at 10 uM relative to control
# Pichia kudriavzevii = test: Antifungal activity against Candida krusei; assay type: functional
# THP-1 = test: Anti-inflammatory activity in human THP1 cells assessed as reduction in TNF production; assay type: functional, cell-based
# MT4 = test: Antiproliferative activity against human MT4 cells; assay type: functional
# Mycobacterium avium = test: Antimycobacterial activity against Mycobacterium avium; assay type: functional
# Aspergillus niger = test: Antifungal activity against Aspergillus niger by disk diffusion method; assay type: functional
# [5] = Inhibition of Human cytomegalovirus protease; design: species or system Human betaherpesvirus 5
# HepG2 = test: Antiproliferative activity against human HepG2 cells; assay type: functional, cell-based
# Cryptococcus neoformans = test: Antifungal activity against Cryptococcus neoformans; assay type: functional
# A549 = test: Antiproliferative activity against human A549 cells; assay type: functional, cell-based
# HT-29 = test: Antiproliferative activity against human HT-29 cells; assay type: functional, cell-based
# [6] = Antiproliferative activity against human MEL28 cells; assay type: functional, cell-based; conditions: SK-MEL-28
# [7] = molecular target: Prostaglandin G/H synthase 2 (Homo sapiens, UniProt P35354); test: Inhibition of COX2 (unknown origin)
# Staphylococcus aureus [8] = test: Antibacterial activity against Staphylococcus aureus; assay type: functional
# Candida albicans = test: Antifungal activity against Candida albicans; assay type: functional
# [9] = tested on: Mycobacterium tuberculosis; test: Antimycobacterial activity against Mycobacterium tuberculosis H37Ra; assay type: functional
# [10] = tested on: Mycobacterium tuberculosis; test: Antimycobacterial activity against Mycobacterium tuberculosis; assay type: functional
# Staphylococcus aureus [11] = test: Antibacterial activity against Staphylococcus aureus assessed as zone of inhibition; assay type: functional
# Alternaria alternata = test: Antifungal activity against Alternaria alternata assessed as zone of inhibition; assay type: functional
# Angiotensin II receptor = Angiotensin II receptor (Homo sapiens, UniProt P30556+P50052); test: Antagonist activity at angiotensin-2 receptor (unknown origin); assay type: protein assay
# Chymase = Chymase (Homo sapiens, UniProt P23946); test: Inhibition of chymase in human mast cells using Suc-Ala-Ala-Pro-Phe-(p-nitroanilide) as substrate for 15 mins by spectrophotometric method; assay type: cell-based
# [12] = tested on: Mycobacterium tuberculosis; test: Antimycobacterial activity against Mycobacterium tuberculosis H37Rv; assay type: functional, organism-based
# Rattus norvegicus [13] = test: Anti-inflammatory activity in rat assessed as inhibition of carrageenan-induced paw edema relative to control; assay type: functional
# Neutrophil [14] = test: Anti-inflammatory activity in human neutrophils assessed as inhibition of fMLP/cytochalasin B-induced superoxide anion generation preincubated for 5 mins followed by fMLP/cytochalasin B addition and measured after 10 mins by spectrophotometric method; assay type: functional, cell-based
# Neutrophil [15] = test: Anti-inflammatory activity in human neutrophils assessed as inhibition of fMLP/cytochalasin B-induced elastase release preincubated for 5 mins followed by fMLP/cytochalasin B addition; assay type: functional, cell-based
# Rattus norvegicus [16] = test: Anti-inflammatory activity in Wistar albino rat assessed as inhibition of carrageenan-induced paw edema at 100 mg/kg, po via gavage measured after 1 hr by plethysmometric method relative to control; assay type: functional
# [17] = Inhibition of Norovirus RNA-dependent RNA polymerase
# [18] = molecular target: Protein farnesyltransferase (Homo sapiens, UniProt P49354+P49356); test: Inhibition of FTase (unknown origin) assessed as reduction in transfer of [3H]FPP to Ki-Ras; assay type: protein-complex assay
# Rattus norvegicus [19] = test: Anti-inflammatory activity in rat assessed as inhibition of carrageenan-induced paw edema after 4 hrs relative to control; assay type: functional
# [20] = Induction of apoptosis in human NB4.437r cells by Annexin V/propidium iodide staining based flow cytometry; assay type: functional, cell-based
# Sequence of Prostaglandin G/H synthase 1 (Homo sapiens) (P23219 whole entry): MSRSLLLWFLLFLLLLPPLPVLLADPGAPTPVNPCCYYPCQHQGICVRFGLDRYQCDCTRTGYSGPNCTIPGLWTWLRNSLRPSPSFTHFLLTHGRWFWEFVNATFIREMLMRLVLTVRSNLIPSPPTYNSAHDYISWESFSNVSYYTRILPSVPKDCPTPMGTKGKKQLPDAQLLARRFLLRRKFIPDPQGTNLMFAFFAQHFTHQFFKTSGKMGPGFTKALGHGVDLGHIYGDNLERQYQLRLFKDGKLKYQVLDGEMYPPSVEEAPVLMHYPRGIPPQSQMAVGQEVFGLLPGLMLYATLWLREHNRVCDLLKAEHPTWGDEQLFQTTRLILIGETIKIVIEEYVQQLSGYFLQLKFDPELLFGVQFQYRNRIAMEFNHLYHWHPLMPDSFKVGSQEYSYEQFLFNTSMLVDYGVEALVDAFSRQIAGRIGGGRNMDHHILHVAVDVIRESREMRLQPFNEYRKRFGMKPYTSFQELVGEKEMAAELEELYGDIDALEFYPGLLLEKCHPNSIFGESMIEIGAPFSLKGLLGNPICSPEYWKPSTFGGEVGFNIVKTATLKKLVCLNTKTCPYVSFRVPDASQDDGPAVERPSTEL
# Sequence of Prostaglandin G/H synthase 2 (P35354 whole entry): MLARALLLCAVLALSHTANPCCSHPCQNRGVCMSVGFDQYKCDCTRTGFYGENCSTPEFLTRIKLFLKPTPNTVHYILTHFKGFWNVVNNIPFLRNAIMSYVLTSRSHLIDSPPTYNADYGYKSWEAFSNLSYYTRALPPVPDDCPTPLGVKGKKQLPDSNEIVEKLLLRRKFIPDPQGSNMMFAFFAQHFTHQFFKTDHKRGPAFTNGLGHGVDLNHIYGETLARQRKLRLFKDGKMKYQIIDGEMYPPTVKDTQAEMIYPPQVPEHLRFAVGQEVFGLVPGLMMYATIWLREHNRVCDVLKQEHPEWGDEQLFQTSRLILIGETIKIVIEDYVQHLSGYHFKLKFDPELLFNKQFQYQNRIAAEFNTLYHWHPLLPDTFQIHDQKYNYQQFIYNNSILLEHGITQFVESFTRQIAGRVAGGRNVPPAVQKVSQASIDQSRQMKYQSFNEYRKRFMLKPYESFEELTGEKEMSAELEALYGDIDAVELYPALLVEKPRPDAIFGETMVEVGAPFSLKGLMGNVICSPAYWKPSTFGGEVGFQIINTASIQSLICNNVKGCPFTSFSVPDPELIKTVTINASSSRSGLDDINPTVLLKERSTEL
# Sequence of Prostaglandin G/H synthase 2 (Homo sapiens) (P35354 whole entry): as above
# Sequence of Chymase (P23946 whole entry): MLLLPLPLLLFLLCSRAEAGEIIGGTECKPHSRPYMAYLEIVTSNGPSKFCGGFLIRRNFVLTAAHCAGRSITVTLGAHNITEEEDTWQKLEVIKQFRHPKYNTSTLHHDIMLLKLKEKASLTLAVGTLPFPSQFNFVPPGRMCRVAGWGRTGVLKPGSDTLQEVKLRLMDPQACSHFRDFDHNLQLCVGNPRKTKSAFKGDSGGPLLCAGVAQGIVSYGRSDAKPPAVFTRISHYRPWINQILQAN
smiles,measurement,setting,value
O=C(COc1ccc2ccccc2c1)NCc1nnc(SCc2nc3ccccc3[nH]2)n1-c1ccccc1,EC50,[1],0.2 µg/mL
COc1cc2c3c([nH]c2cc1Cl)C(=O)c1ccccc1C3=O,IC50,HL-60,53.1 µM
CC(C)C(NC(=O)COc1ccc2ccccc2c1)C(=O)NN (centres undefined),EC50,[2],42 µg/mL
CC(=O)Oc1ccc2c(c1)c1c(n2C)C(=O)c2ccccc2C1=O,IC50,HL-60,1.01 µM
CN(C)CC1C(=O)c2cccc3cc([N+](=O)[O-])cc(c23)C1=O (centres undefined),IC50,HeLa,0.15 µg/mL
CN(C)CCNC(=O)c1cc2c3ccccc3sc2c2ccccc12,IC50,P388,0.428 µM
COc1ccc2c(c1)CCC(NS(C)(=O)=O)C2 (centres undefined),inhibition,[3],50%
same,inhibition,[4],87%
Nc1nnc(COc2cccc3ccccc23)o1,MIC,Pichia kudriavzevii,64 µg/mL
Nc1ccc(-c2ccc(Cc3cccnc3)c(O)c2)c2ccccc12,IC50,THP-1,< 10 µM
Sc1nnc(COc2ccc3ccccc3c2)o1,MIC,Pichia kudriavzevii,64 µg/mL
CCN(CC)CC1C(=O)c2cccc3cc([N+](=O)[O-])cc(c23)C1=O (centres undefined),IC50,HeLa,2.5 µg/mL
N#CCCCOc1ccc(-c2ccc(N)c3ccccc23)cn1,IC50,THP-1,< 10 µM
CC(=O)Oc1ccc2c(c1)c1c(n2CCN(C)C)C(=O)c2ccccc2C1=O,IC50,HL-60,0.17 µM
COC(=O)C(NC(=O)COc1ccc2ccccc2c1)C(C)C (centres undefined),CC50,MT4,42 µM
COc1ccccc1NC(=O)c1cccc2ccccc12,MIC,Mycobacterium avium,54 µM
CC(=O)Oc1ccc2[nH]c3c(c2c1)C(=O)c1ccccc1C3=O,IC50,HL-60,1.31 µM
c1ccc(-c2ccc3c(c2)CCCC3)cc1,MIC,Aspergillus niger,780 µg/mL
O=C(O)c1ccc(CNc2ccc3c(/C=C/c4ccc5ccc(Cl)cc5n4)cccc3c2)cc1,IC50,[5],2.7 µM
COc1cc(OC)c(C2=CCN(C)CC2)c(O)c1C(=O)/C=C/c1cccc2ccccc12,IC50,HepG2,6.5 µM
NS(=O)(=O)c1ccc2c(c1)-c1nnsc1CC2,MIC,Cryptococcus neoformans,0.53 µg/mL
COc1cc(/C=C\c2ccc3ccccc3c2)cc(OC)c1OC [NAPHTHYLCOMBRETASTATIN],IC50,P388,6.4 µM
same,IC50,A549,7.4 µM
same,IC50,HT-29,5.4 µM
same,IC50,[6],5.4 µM
COc1ccc(/C=C/c2ccc3ccccc3c2)cc1O,IC50,P388,6.4 µM
same,IC50,A549,7.4 µM
same,IC50,HT-29,5.4 µM
same,IC50,[6],5.4 µM
COc1ccc2cc(CCS(C)(=O)=O)ccc2c1,inhibition,[3],65%
same,inhibition,[4],29%
same,IC50,[7],10 µM
CS(=O)(=O)Nc1cc(Cc2ccc(Cl)cc2)c2ccccc2c1,IC50,[7],10 µM
O=C1c2cccc3cc([N+](=O)[O-])cc(c23)C(=O)C1CN1CCCCC1 (centres undefined),IC50,HeLa,2 µg/mL
CC(C)NC(=N)c1ccc2c(c1)nc(-c1ccc3c(c1)C(C)(C)CCC3(C)C)n2Cc1ccc2ccccc2c1,MIC,Staphylococcus aureus [8],0.78 µg/mL
same,MIC,Candida albicans,0.78 µg/mL
COc1cc(/C=C/c2ccc3ccccc3c2)cc(OC)c1OC,IC50,P388,6.4 µM
same,IC50,A549,7.4 µM
same,IC50,HT-29,5.4 µM
same,IC50,[6],5.4 µM
O=C1C(O)=C(C(Nc2ccccn2)c2ccccc2O)C(=O)c2ccccc21 (centres undefined),MIC,[9],25 µg/mL
COc1nc2ccc(Br)cc2cc1[C@@H](c1ccccc1)[C@@](O)(CCN(C)C)c1cccc2ccccc12 [BEDAQUILINE],MIC,[10],0.06 µg/mL
Nc1cccc2cccc(/N=C3/CCC/C(=N\c4cccc5cccc(N)c45)C3)c12,inhibition zone (IZ),Staphylococcus aureus [11],10 mm
same,inhibition zone (IZ),Alternaria alternata,10.5 mm
CCC(Cl)Cc1nc(CO)cn1Cc1ccc2cc(-c3nnn[nH]3)ccc2c1 (centres undefined),IC50,Angiotensin II receptor,0.2 µM
C(=C/c1ccc2ccccc2c1)/c1ccc2ccccc2c1,IC50,P388,6.4 µM
same,IC50,A549,7.4 µM
same,IC50,HT-29,5.4 µM
same,IC50,[6],5.4 µM
COc1cc(OC)c(C2=CCN(C)CC2)c(O)c1C(=O)/C=C/c1ccc2ccccc2c1,IC50,HepG2,6.5 µM
O=[N+]([O-])c1ccc2c(c1)-c1nnsc1CC2,MIC,Cryptococcus neoformans,0.53 µg/mL
O=C(c1ccc2ccccc2c1)C(c1cccc2ccccc12)P(=O)(O)O (centres undefined),Ki,Chymase,0.0023 µM
CSc1ncc(-n2nc(C(C)C)cc2NC(=O)Nc2ccc(-c3ccc(CN(C)C)nc3)c3ccccc23)cn1,IC50,THP-1,< 10 µM
COc1ccc2[nH]c3c(c2c1)C(=O)c1ccccc1C3=O,IC50,HL-60,45.4 µM
CC(=O)c1ccnc(C2=CC(=O)c3ccccc3C2=O)c1,MIC,[12],3.13 µg/mL
COc1ccc2cc([C@H](C)C(=O)O)ccc2c1 [NAPROXEN],inhibition (INH),Rattus norvegicus [13],85.02%
COc1cc(C(C)=O)c(O)c2ccc(O)cc12,IC50,Neutrophil [14],1.9 µg/mL
same,IC50,Neutrophil [15],3.17 µg/mL
C(=C\c1ccc2ccccc2c1)/c1ccc2ccccc2c1,IC50,P388,6.4 µM
same,IC50,A549,7.4 µM
same,IC50,HT-29,5.4 µM
same,IC50,[6],5.4 µM
O=c1[nH]nc(COc2cccc3ccccc23)o1,MIC,Pichia kudriavzevii,64 µg/mL
COc1nc2ccc(Br)cc2cc1[C@H](c1ccccc1)N(C(=O)CN1CCOCC1)[C@@H](C)c1cccc2ccccc12,MIC,[10],60 µg/mL
COc1ccc2cc(-c3nnc(-c4cc(Cl)cc(Cl)c4)o3)ccc2c1,inhibition in vivo at 100 mg/kg,Rattus norvegicus [16],71.1%
CN(C)CCNC(=O)c1cc2c3c(cccc3c1)Sc1ccccc1-2,IC50,P388,0.176 µM
O=C(Nc1cccc(F)c1)c1cccc2ccccc12,MIC,Mycobacterium avium,59 µM
O=C1c2cccc3cc([N+](=O)[O-])cc(c23)C(=O)C1CN1CCCC1 (centres undefined),IC50,HeLa,0.3 µg/mL
COc1ccc2cc(C(C)C(=O)NC(=S)Nc3ccc(CS(=O)(=O)Nc4cc(C)on4)cc3)ccc2c1 (centres undefined),inhibition (INH),Rattus norvegicus [13],89.77%
CN(C)CCOc1ccc2c(c1)c1c(n2C)C(=O)c2ccccc2C1=O,IC50,HL-60,0.28 µM
Nc1ccc(-c2ccc(CC3CCOC3)c(O)c2)c2ccccc12 (centres undefined),IC50,THP-1,< 10 µM
Cc1nc(/N=N/c2cc(S(=O)(=O)O)c3cc([N+](=O)[O-])cc(S(=O)(=O)O)c3c2)cc(C=O)c1O,IC50,[17],0.45 µM
O=C(CCNc1c(Br)cc(Br)cc1C(=O)O)Nc1ccc2ccccc2c1,inhibition (INH),Rattus norvegicus [13],67.37%
CC(C)c1cccc(OC(=O)Nc2ccc(-c3ccc(CN4CCOCC4)nc3)c3ccccc23)c1,IC50,THP-1,< 10 µM
CSCC[C@H](NC(=O)c1cccc2cc(NC[C@@H](N)CS)ccc12)C(=O)O,IC50,[18],0.017 µM
CN1CCC(N)CC1c1ccc(-c2ccc(N)c3ccccc23)cn1 (centres undefined),IC50,THP-1,< 10 µM
Oc1c(C2=NNC(c3ccc(Br)cc3)C2)ccc2ccccc12 (centres undefined),inhibition (INH),Rattus norvegicus [19],68.96%
O=C(Cc1cccc2c1CCCC2)N/N=C/c1ccc(O)c([N+](=O)[O-])c1,IC50,[12],3.07 µg/mL
COc1ccccc1C1CC(Nc2ccc3ccccc3c2)=NN1C(C)=O (centres undefined),inhibition (INH),Rattus norvegicus [13],67.85%
O=C(O)c1ccc2cc(-c3ccc(O)c(C45CC6CC(CC(C6)C4)C5)c3)ccc2c1 [O-DEMETHYLATED ADAPALENE],EC50,[20],11.9 µM
COc1ccc(/C=C\c2ccc3ccccc3c2)cc1O,IC50,P388,6.4 µM
same,IC50,A549,7.4 µM
same,IC50,HT-29,5.4 µM
same,IC50,[6],5.4 µM
